From US20260116921A1, “PEPTIDE INHIBITORS OF INTERLEUKIN-23 RECEPTOR AND THEIR USE TO TREAT INFLAMMATORY DISEASES” (priority 2018, published 2026)
Bridge positions count the residues as written; N and C are the ends. Square brackets hold non-standard residues; d marks the D form. Peptide text beside a SMILES is read from it. Trp(7-Me) = Cc1cccc2c(C[C@H](N)C(=O)O)c[nH]c12; 2Nal = N[C@@H](Cc1ccc2ccccc2c1)C(=O)O; AEF = NCCOc1ccc(C[C@H](N)C(=O)O)cc1; Cit = NC(=O)NCCC[C@H](N)C(=O)O; Pen = CC(C)(S)[C@H](N)C(=O)O; αMeK = C[C@](N)(CCCCN)C(=O)O; βAla = NCCC(=O)O

Tests used:
in vitro [1] = details: human, 20% fecal homogenate (supernatant), anaerobic, pH 6.8
in vitro [2] = details: both, SD, rat, plasma (EDTA)
in vitro [3] = type: in vitro ADME; design: half-life: dose or concentration left out as unconfirmed; details: simulated intestinal fluid (SIF) with pancreatin, pH 6.8, 37° C., § matrix is 100 fold dilution of standard SIF concentration, read-out: SIF t½ (converted)
Protocol: SIF was prepared by adding 6.8 g of monobasic potassium phosphate and 10.0 g of pancreatin to 1.0 L of water. After dissolution, the pH was adjusted to 6.8 using NaOH. DMSO stocks (2 mM) were first prepared for the test compounds. Aliquots of the DMSO solutions were dosed into 6 individual tubes, each containing 0.5 mL of SIF, which is pre-warmed to 37° C. The final test compound concentration was 20 M. The vials were kept in a benchtop Thermomixer® for the duration of the experiment. At each timepoint (0, 5, 10, 20, 40, 60, or 360 minutes or 24 hours), 1.0 mL of acetonitrile containing 1% formic acid was added to one vial to terminate the reaction. Samples were stored at 4° C. until the end of the experiment. After the final timepoint is sampled, the tubes were mixed and then centrifuged at 3,000 rpm for 10 minutes. Aliquots of the supernatant were removed, diluted 1:1 into distilled water containing internal standard, and analyzed by LCMS/MS. Percent remaining at each timepoint was calculated based on the peak area response ratio of test to compound to internal standard. Time 0 was set to 100%, and all later timepoints were calculated relative to time 0. Half-lives were calculated by fitting to a first-order exponential decay equation using Graphpad.

IL-23R = target: T1, IL-23R (Homo sapiens, UniProt Q5VWK5); assay: DB cells IL23R pSTAT3 cell assay (pStat3 HTRF); type: cell-based; details: Table E3; DB cells, IL-23 0.5 nM, 30 minutes at 37° C.; read-out: pStat3 HTRF (IC50)
T1 sequence (Q5VWK5 24-629): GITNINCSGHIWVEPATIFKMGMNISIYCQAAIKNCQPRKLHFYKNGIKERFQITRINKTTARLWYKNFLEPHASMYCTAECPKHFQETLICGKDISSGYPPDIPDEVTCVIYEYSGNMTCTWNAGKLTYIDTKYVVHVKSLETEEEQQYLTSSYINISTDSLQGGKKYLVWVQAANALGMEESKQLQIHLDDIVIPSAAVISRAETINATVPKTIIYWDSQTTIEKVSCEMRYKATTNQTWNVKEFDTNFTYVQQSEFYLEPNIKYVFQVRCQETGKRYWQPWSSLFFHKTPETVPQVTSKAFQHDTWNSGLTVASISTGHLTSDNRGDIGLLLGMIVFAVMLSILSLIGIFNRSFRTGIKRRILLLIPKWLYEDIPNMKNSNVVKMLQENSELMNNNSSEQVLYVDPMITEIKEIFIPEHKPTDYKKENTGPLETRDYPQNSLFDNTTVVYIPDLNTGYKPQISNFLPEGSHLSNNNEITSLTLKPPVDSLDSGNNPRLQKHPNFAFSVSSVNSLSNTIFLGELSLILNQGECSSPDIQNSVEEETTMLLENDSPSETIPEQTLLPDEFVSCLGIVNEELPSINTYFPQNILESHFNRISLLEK
How it was run: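 DB cells (5×10E5/well, RPMI-1640 + 10% FBS) stimulated with 0.5 nM final IL-23 plus serially diluted test peptides for 30 min at 37 °C, 5% CO2. Phospho-STAT3 (Tyr705) in lysates measured by HTRF using a two-plate protocol.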

in vitro [4] = details: cynomolgus monkey, 20% fecal homogenate (supernatant), anaerobic, pH 6.8

| Compound | half-life at 20 μM (in vitro [1]) | half-life at 20 μM (in vitro [2]) | half-life (in vitro [3]) | IC50 (IL-23R) | half-life at 20 μM (in vitro [4]) |
| --- | --- | --- | --- | --- | --- |
| CC(=O)NCCCC[C@@H]1NC(=O)[C@H](Cc2c[nH]c3c(C)cccc23)NC(=O)[C@H]([C@@H](C)O)NC(=O)[C@H](CC(N)=O)NC(=O)[C@@H](NC(C)=O)C(C)(C)SSC(C)(C)[C@@H](C(=O)N[C@@H](Cc2ccc(OCCN)cc2)C(=O)N[C@@H](Cc2ccc3ccccc3c2)C(=O)N[C@@](C)(CCCCN)C(=O)N[C@@H](CCCCNC(C)=O)C(=O)N[C@@H](CC(N)=O)C(=O)N[C@@H](CC(C)C)C(N)=O)NC1=O [compound 244] | 19 h | > 24 h | 1 h | 1 to 10 nM |  |
| CC(=O)NCCCC[C@@H]1NC(=O)[C@H](Cc2c[nH]c3c(C)cccc23)NC(=O)[C@H]([C@@H](C)O)NC(=O)[C@H](CC(N)=O)NC(=O)[C@@H](NC(C)=O)C(C)(C)SSC(C)(C)[C@@H](C(=O)N[C@@H](Cc2ccc(OCCN)cc2)C(=O)N[C@@H](Cc2ccc3ccccc3c2)C(=O)N[C@@](C)(CCCCN)C(=O)N[C@@H](CCCCNC(C)=O)C(=O)N[C@@H](CC(N)=O)C(=O)N[C@@H](Cc2c[nH]cn2)C(N)=O)NC1=O [compound 248] | > 24 h | > 24 h | 3 h |  | 6 h |
| CC(=O)NCCCC[C@@H]1NC(=O)[C@H](Cc2c[nH]c3c(C)cccc23)NC(=O)[C@H]([C@@H](C)O)NC(=O)[C@H](CC(N)=O)NC(=O)[C@@H](NC(C)=O)C(C)(C)SSC(C)(C)[C@@H](C(=O)N[C@@H](Cc2ccc(OCCN)cc2)C(=O)N[C@@H](Cc2ccc3ccccc3c2)C(=O)N[C@@](C)(CCCCN)C(=O)N[C@@H](CCCCNC(C)=O)C(=O)N[C@@H](CC(N)=O)C(=O)N[C@@H](CCCNC(N)=O)C(N)=O)NC1=O [compound 249] | > 24 h | > 24 h | 7 h | < 1 nM | 5 h |
| CC(=O)NCCCC[C@@H]1NC(=O)[C@H](Cc2c[nH]c3c(C)cccc23)NC(=O)[C@H]([C@@H](C)O)NC(=O)[C@H](CC(N)=O)NC(=O)[C@@H](NC(C)=O)C(C)(C)SSC(C)(C)[C@@H](C(=O)N[C@@H](Cc2ccc(OCCN)cc2)C(=O)N[C@@H](Cc2ccc3ccccc3c2)C(=O)N[C@@](C)(CCCCN)C(=O)N[C@@H](CCCCNC(C)=O)C(=O)N[C@@H](CC(N)=O)C(=O)N[C@H](C(N)=O)C(C)C)NC1=O [compound 250] | > 24 h | > 24 h | 17 h | 1 to 10 nM | 12 h |
| CC(=O)NCCCC[C@@H]1NC(=O)[C@H](Cc2c[nH]c3c(C)cccc23)NC(=O)[C@H]([C@@H](C)O)NC(=O)[C@H](CC(N)=O)NC(=O)[C@@H](NC(C)=O)C(C)(C)SSC(C)(C)[C@@H](C(=O)N[C@@H](Cc2ccc(OCCN)cc2)C(=O)N[C@@H](Cc2ccc3ccccc3c2)C(=O)N[C@@](C)(CCCCN)C(=O)N[C@@H](CCCCNC(C)=O)C(=O)N[C@@H](CC(N)=O)C(=O)N[C@@H](C(N)=O)C(C)C)NC1=O [compound 251] | > 24 h | > 24 h | 22 h | < 1 nM | > 24 h |
| CC(=O)NCCCC[C@@H]1NC(=O)[C@H](Cc2c[nH]c3c(C)cccc23)NC(=O)[C@H]([C@@H](C)O)NC(=O)[C@H](CC(N)=O)NC(=O)[C@@H](NC(C)=O)C(C)(C)SSC(C)(C)[C@@H](C(=O)N[C@@H](Cc2ccc(OCCN)cc2)C(=O)N[C@@H](Cc2ccc3ccccc3c2)C(=O)N[C@@](C)(CCCCN)C(=O)N[C@@H](CCCCNC(C)=O)C(=O)N[C@@H](CC(N)=O)C(=O)N2CCC[C@H]2C(N)=O)NC1=O [compound 253] | 1 h | > 24 h | 11 h | 1 to 10 nM | 3 h |
| CC(=O)NCCCC[C@@H]1NC(=O)[C@H](Cc2c[nH]c3c(C)cccc23)NC(=O)[C@H]([C@@H](C)O)NC(=O)[C@H](CC(N)=O)NC(=O)[C@@H](NC(C)=O)C(C)(C)SSC(C)(C)[C@@H](C(=O)N[C@@H](Cc2ccc(OCCN)cc2)C(=O)N[C@@H](Cc2ccc3ccccc3c2)C(=O)N[C@@](C)(CCCCN)C(=O)N[C@@H](CCCCNC(C)=O)C(=O)N[C@@H](CC(N)=O)C(=O)N2CCC[C@@H]2C(N)=O)NC1=O [compound 254] | > 24 h | 12 h | 16 h | 1 to 10 nM | > 24 h |
| CC[C@H](C)[C@H](NC(=O)[C@H](CC(N)=O)NC(=O)[C@H](CCCCNC(C)=O)NC(=O)[C@](C)(CCCCN)NC(=O)[C@H](Cc1ccc2ccccc2c1)NC(=O)[C@H](Cc1ccc(OCCN)cc1)NC(=O)[C@H]1NC(=O)[C@H](CCCCNC(C)=O)NC(=O)[C@H](Cc2c[nH]c3c(C)cccc23)NC(=O)[C@H]([C@@H](C)O)NC(=O)[C@H](CC(N)=O)NC(=O)[C@@H](NC(C)=O)C(C)(C)SSC1(C)C)C(N)=O [compound 255] | > 24 h | > 24 h | 19 h | 1 to 10 nM | 15 h |
| CC(=O)NCCCC[C@H](NC(=O)[C@](C)(CCCCN)NC(=O)[C@H](Cc1ccc2ccccc2c1)NC(=O)[C@H](Cc1ccc(OCCN)cc1)NC(=O)[C@H]1NC(=O)[C@H](CCCNC(N)=O)NC(=O)[C@H](Cc2c[nH]c3c(C)cccc23)NC(=O)[C@H]([C@@H](C)O)NC(=O)[C@H](CC(N)=O)NC(=O)[C@@H](NC(C)=O)C(C)(C)SSC1(C)C)C(=O)N[C@@H](CC(N)=O)C(=O)N[C@H](Cc1ccccc1)C(N)=O [compound 257] (Ac-[Pen]NT[Trp(7-Me)][Cit][Pen][AEF][2Nal][αMeK]K(Ac)N[dF]-NH2; disulfide 1-6) | > 24 h | > 24 h | 5 h | 1 to 10 nM | 23 h |
| CC(=O)NCCCC[C@H](NC(=O)[C@](C)(CCCCN)NC(=O)[C@H](Cc1ccc2ccccc2c1)NC(=O)[C@H](Cc1ccc(OCCN)cc1)NC(=O)[C@H]1NC(=O)[C@H](CCCNC(N)=O)NC(=O)[C@H](Cc2c[nH]c3c(C)cccc23)NC(=O)[C@H]([C@@H](C)O)NC(=O)[C@H](CC(N)=O)NC(=O)[C@@H](NC(C)=O)C(C)(C)SSC1(C)C)C(=O)N[C@@H](CC(N)=O)C(=O)N[C@H](Cc1ccc(O)cc1)C(N)=O [compound 259] (Ac-[Pen]NT[Trp(7-Me)][Cit][Pen][AEF][2Nal][αMeK]K(Ac)N[dY]-NH2; disulfide 1-6) | > 24 h | > 24 h | 12 h | < 1 nM | 16 h |
| CC(=O)NCCCC[C@H](NC(=O)[C@](C)(CCCCN)NC(=O)[C@H](Cc1ccc2ccccc2c1)NC(=O)[C@H](Cc1ccc(OCCN)cc1)NC(=O)[C@H]1NC(=O)[C@H](CCCNC(N)=O)NC(=O)[C@H](Cc2c[nH]c3c(C)cccc23)NC(=O)[C@H]([C@@H](C)O)NC(=O)[C@H](CC(N)=O)NC(=O)[C@@H](NC(C)=O)C(C)(C)SSC1(C)C)C(=O)N[C@@H](CC(N)=O)C(=O)N[C@H](CO)C(N)=O [compound 261] (Ac-[Pen]NT[Trp(7-Me)][Cit][Pen][AEF][2Nal][αMeK]K(Ac)N[dS]-NH2; disulfide 1-6) | > 24 h | > 24 h | 18 h | < 1 nM | 4 h |
| CC(=O)NCCCC[C@H](NC(=O)[C@](C)(CCCCN)NC(=O)[C@H](Cc1ccc2ccccc2c1)NC(=O)[C@H](Cc1ccc(OCCN)cc1)NC(=O)[C@H]1NC(=O)[C@H](CCCNC(N)=O)NC(=O)[C@H](Cc2c[nH]c3c(C)cccc23)NC(=O)[C@H]([C@@H](C)O)NC(=O)[C@H](CC(N)=O)NC(=O)[C@@H](NC(C)=O)C(C)(C)SSC1(C)C)C(=O)N[C@@H](CC(N)=O)C(=O)N[C@@H](C(N)=O)[C@H](C)O [compound 263] (Ac-[Pen]NT[Trp(7-Me)][Cit][Pen][AEF][2Nal][αMeK]K(Ac)N[dT]-NH2; disulfide 1-6) | > 24 h | > 24 h | 14 h | < 1 nM | 9 h |
| CC(=O)NCCCC[C@H](NC(=O)[C@](C)(CCCCN)NC(=O)[C@H](Cc1ccc2ccccc2c1)NC(=O)[C@H](Cc1ccc(OCCN)cc1)NC(=O)[C@H]1NC(=O)[C@H](CCCNC(N)=O)NC(=O)[C@H](Cc2c[nH]c3c(C)cccc23)NC(=O)[C@H]([C@@H](C)O)NC(=O)[C@H](CC(N)=O)NC(=O)[C@@H](NC(C)=O)C(C)(C)SSC1(C)C)C(=O)NCCC(=O)NCCC(N)=O [compound 268] (Ac-[Pen]NT[Trp(7-Me)][Cit][Pen][AEF][2Nal][αMeK]K(Ac)[βAla][βAla]-NH2; disulfide 1-6) | > 24 h | > 24 h | 15 h | 1 to 10 nM | > 24 h |
